# Experimental data as given in patent US3955959A, “Herbicide for use in transplanted rice” (priority 1974, dated 1976).
# Assays:
# Cs (Cyperus serotinus) = assay: Example 6 weed control, JAAPR, Japan; assay type: in vivo; conditions: Normal season
# Method: (§1) In this example, the efficacy of Herbicide A is presented for a variety of weeds in the presence of ordinary and infant transplant rice. In this example, tests were conducted at the said JAAPR Lab at different times of the year. "Early season" transplants were made in April and "Normal season" transplants were made in July. The size of the transplants at the respective seasons were: Season Seedling Type Plant Height (cm) Leaf Stage ______________________________________ Early Ordinary 16.5 4.5 Early Infant 9.1 2.4 Normal Ordinary 41.7 5.3 Normal Infant 14.7 1.9 ______________________________________
# (§2) Duplicate treatments were used. At the time of application of the herbicide, the status of the grass (EC) was as follows: […]
# Et (Elatine triandra) = assay: Example 6 weed control, JAAPR, Japan; assay type: in vivo
# Method: as §1, §2
# Lp (Lindernia pyxidaria) = assay: Example 6 weed control, JAAPR, Japan; assay type: in vivo
# Method: as §1, §2
# [1] = system: Mv (Monochoria vaginalis); assay: Example 6 weed control, JAAPR, Japan; assay type: in vivo
# Method: as §1, §2
# Ri (Rotala indica) = assay: Example 6 weed control, JAAPR, Japan; assay type: in vivo
# Method: as §1, §2
# Sp (Sagittaria pygmaea) = assay: Example 6 weed control, JAAPR, Japan; assay type: in vivo; conditions: Normal season
# Method: as §1, §2
# [2] = system: Ec (Echinochloa crusgalli); assay: Example 8 residual weed control, JAAPR, Japan; assay type: in vivo; conditions: Table 8 (Ec and Ri)
# Method: This example describes the results of tests conducted at the JAAPR Laboratory in Japan to determine the comparative residual effect of Herbicide A vis-a-vis that of commercial rice herbicides in Japan.
# In the tests according to this example, the test weed species Echinochloa crusgalli (Ec) and Rotala indica (Ri), were grown in clay loam soil having 2.3% organic matter and a percolation rate of 3 cm/day for 2 days. Herbicide A was applied to the weeds at an expected use rate of about 0.67-1.34 lbs/ac (0.75-1.5 kgs/ha) and the commercial rice herbicides, whose active ingredients are identified below, were applied at their indicated expected use rates: […]
# transplanted rice = assay: Crop safety to transplanted rice, general; assay type: in vivo
# [3] = system: Cyperus difformis, Cyperus iria, Cyperus serotinus, Eleocharis acicularis, Eleocharis kuroguwai, Fimbristylis spp, Scirpus hotarui and Scirpus spp; assay: Weeds effectively treated to date: sedges; assay type: in vivo
# [4] = system: Ammannia spp, Amaranthus retroflexus, Elatine triandra, Jussiaea decurrens, Lindernia pyxidaria, Rotala Sphenoclea zeylanica and Partulaca oleracea; assay: Weeds effectively treated to date: dicotyledonous broadleaf weeds; assay type: in vivo
# [5] = system: weeds in transplanted rice; assay: Example 6 overall; assay type: in vivo
# Method: as §1, §2
# weeds in rice fields = conditions: prior art; cited from earlier work
# [6] = Early season, ordinary, 1.0 kg/ha, 3 DAT
# [7] = Early season, ordinary, 1.0 kg/ha, 12 DAT
# [8] = Early season, ordinary, 1.0 kg/ha, -2 DAT
# [9] = Early season, ordinary, .5 kg/ha, 3 DAT
# [10] = Early season, ordinary, .5 kg/ha, 12 DAT
# [11] = Early season, ordinary, .5 kg/ha, -2 DAT
# [12] = Normal season, infant, 1.0 kg/ha, 3 DAT
# [13] = Normal season, infant, 1.0 kg/ha, 7 DAT
# [14] = Normal season, infant, 1.0 kg/ha, -2 DAT
# [15] = Normal season, infant, .5 kg/ha, 3 DAT
# [16] = Normal season, infant, .5 kg/ha, 7 DAT
# [17] = Normal season, infant, .5 kg/ha, -2 DAT
# [18] = Normal season, ordinary, 1.0 kg/ha, 3 DAT
# [19] = Normal season, ordinary, 1.0 kg/ha, 7 DAT
# [20] = Normal season, ordinary, 1.0 kg/ha, -2 DAT
# [21] = Normal season, ordinary, .5 kg/ha, 3 DAT
# [22] = Normal season, ordinary, .5 kg/ha, 7 DAT
# [23] = Normal season, ordinary, .5 kg/ha, -2 DAT
structure (smiles),measurement,setting,value
"CCCCOCN(C(=O)CCl)c1c(C)cccc1C(C)(C)C [Herbicide A, n-(butoxymethyl)-6'-tert-butyl-2-chloro-o-acetotoluidide]",% Weed Control (Cs),"Cs (Cyperus serotinus); infant, 1.0 kg/ha, 3 DAT",100%
same,% Weed Control (Cs),"Cs (Cyperus serotinus); infant, 1.0 kg/ha, 7 DAT",100%
same,% Weed Control (Cs),"Cs (Cyperus serotinus); infant, 1.0 kg/ha, -2 DAT",100%
same,% Weed Control (Cs),"Cs (Cyperus serotinus); infant, .5 kg/ha, 3 DAT",100%
same,% Weed Control (Cs),"Cs (Cyperus serotinus); infant, .5 kg/ha, 7 DAT",100%
same,% Weed Control (Cs),"Cs (Cyperus serotinus); infant, .5 kg/ha, -2 DAT",100%
same,% Weed Control (Cs),"Cs (Cyperus serotinus); ordinary, 1.0 kg/ha, 3 DAT",100%
same,% Weed Control (Cs),"Cs (Cyperus serotinus); ordinary, 1.0 kg/ha, 7 DAT",100%
same,% Weed Control (Cs),"Cs (Cyperus serotinus); ordinary, 1.0 kg/ha, -2 DAT",100%
same,% Weed Control (Cs),"Cs (Cyperus serotinus); ordinary, .5 kg/ha, 3 DAT",100%
same,% Weed Control (Cs),"Cs (Cyperus serotinus); ordinary, .5 kg/ha, 7 DAT",100%
same,% Weed Control (Cs),"Cs (Cyperus serotinus); ordinary, .5 kg/ha, -2 DAT",100%
same,% Weed Control (Et),Et (Elatine triandra); [6],95%
same,% Weed Control (Et),Et (Elatine triandra); [7],70%
same,% Weed Control (Et),Et (Elatine triandra); [8],95%
same,% Weed Control (Et),Et (Elatine triandra); [9],70%
same,% Weed Control (Et),Et (Elatine triandra); [10],< 40%
same,% Weed Control (Et),Et (Elatine triandra); [11],95%
same,% Weed Control (Et),Et (Elatine triandra); [12],100%
same,% Weed Control (Et),Et (Elatine triandra); [13],100%
same,% Weed Control (Et),Et (Elatine triandra); [14],100%
same,% Weed Control (Et),Et (Elatine triandra); [15],100%
same,% Weed Control (Et),Et (Elatine triandra); [16],100%
same,% Weed Control (Et),Et (Elatine triandra); [17],100%
same,% Weed Control (Et),Et (Elatine triandra); [18],100%
same,% Weed Control (Et),Et (Elatine triandra); [19],100%
same,% Weed Control (Et),Et (Elatine triandra); [20],100%
same,% Weed Control (Et),Et (Elatine triandra); [21],100%
same,% Weed Control (Et),Et (Elatine triandra); [22],100%
same,% Weed Control (Et),Et (Elatine triandra); [23],100%
same,% Weed Control (Lp),Lp (Lindernia pyxidaria); [6],100%
same,% Weed Control (Lp),Lp (Lindernia pyxidaria); [7],95%
same,% Weed Control (Lp),Lp (Lindernia pyxidaria); [8],100%
same,% Weed Control (Lp),Lp (Lindernia pyxidaria); [9],100%
same,% Weed Control (Lp),Lp (Lindernia pyxidaria); [10],85%
same,% Weed Control (Lp),Lp (Lindernia pyxidaria); [11],100%
same,% Weed Control (Lp),Lp (Lindernia pyxidaria); [12],100%
same,% Weed Control (Lp),Lp (Lindernia pyxidaria); [13],100%
same,% Weed Control (Lp),Lp (Lindernia pyxidaria); [14],100%
same,% Weed Control (Lp),Lp (Lindernia pyxidaria); [15],100%
same,% Weed Control (Lp),Lp (Lindernia pyxidaria); [16],100%
same,% Weed Control (Lp),Lp (Lindernia pyxidaria); [17],100%
same,% Weed Control (Lp),Lp (Lindernia pyxidaria); [18],100%
same,% Weed Control (Lp),Lp (Lindernia pyxidaria); [19],100%
same,% Weed Control (Lp),Lp (Lindernia pyxidaria); [20],100%
same,% Weed Control (Lp),Lp (Lindernia pyxidaria); [21],100%
same,% Weed Control (Lp),Lp (Lindernia pyxidaria); [22],100%
same,% Weed Control (Lp),Lp (Lindernia pyxidaria); [23],100%
same,% Weed Control (Mv),[1]; [6],100%
same,% Weed Control (Mv),[1]; [7],95%
same,% Weed Control (Mv),[1]; [8],100%
same,% Weed Control (Mv),[1]; [9],95%
same,% Weed Control (Mv),[1]; [10],95%
same,% Weed Control (Mv),[1]; [11],95%
same,% Weed Control (Mv),[1]; [12],100%
same,% Weed Control (Mv),[1]; [13],85%
same,% Weed Control (Mv),[1]; [14],100%
same,% Weed Control (Mv),[1]; [15],100%
same,% Weed Control (Mv),[1]; [16],70%
same,% Weed Control (Mv),[1]; [17],100%
same,% Weed Control (Mv),[1]; [18],100%
same,% Weed Control (Mv),[1]; [19],100%
same,% Weed Control (Mv),[1]; [20],100%
same,% Weed Control (Mv),[1]; [21],100%
same,% Weed Control (Mv),[1]; [22],95%
same,% Weed Control (Mv),[1]; [23],100%
same,% Weed Control (Ri),Ri (Rotala indica); [6],100%
same,% Weed Control (Ri),Ri (Rotala indica); [7],100%
same,% Weed Control (Ri),Ri (Rotala indica); [8],100%
same,% Weed Control (Ri),Ri (Rotala indica); [9],100%
same,% Weed Control (Ri),Ri (Rotala indica); [10],100%
same,% Weed Control (Ri),Ri (Rotala indica); [11],100%
same,% Weed Control (Ri),Ri (Rotala indica); [12],100%
same,% Weed Control (Ri),Ri (Rotala indica); [13],100%
same,% Weed Control (Ri),Ri (Rotala indica); [14],100%
same,% Weed Control (Ri),Ri (Rotala indica); [15],100%
same,% Weed Control (Ri),Ri (Rotala indica); [16],100%
same,% Weed Control (Ri),Ri (Rotala indica); [17],100%
same,% Weed Control (Ri),Ri (Rotala indica); [18],100%
same,% Weed Control (Ri),Ri (Rotala indica); [19],100%
same,% Weed Control (Ri),Ri (Rotala indica); [20],100%
same,% Weed Control (Ri),Ri (Rotala indica); [21],100%
same,% Weed Control (Ri),Ri (Rotala indica); [22],100%
same,% Weed Control (Ri),Ri (Rotala indica); [23],100%
same,% Weed Control (Sp),"Sp (Sagittaria pygmaea); infant, 1.0 kg/ha, 3 DAT",< 40%
same,% Weed Control (Sp),"Sp (Sagittaria pygmaea); infant, 1.0 kg/ha, 7 DAT",< 40%
same,% Weed Control (Sp),"Sp (Sagittaria pygmaea); infant, 1.0 kg/ha, -2 DAT",< 40%
same,% Weed Control (Sp),"Sp (Sagittaria pygmaea); infant, .5 kg/ha, 3 DAT",< 40%
same,% Weed Control (Sp),"Sp (Sagittaria pygmaea); infant, .5 kg/ha, 7 DAT",< 40%
same,% Weed Control (Sp),"Sp (Sagittaria pygmaea); infant, .5 kg/ha, -2 DAT",< 40%
same,% Weed Control (Sp),"Sp (Sagittaria pygmaea); ordinary, 1.0 kg/ha, 3 DAT",< 40%
same,% Weed Control (Sp),"Sp (Sagittaria pygmaea); ordinary, 1.0 kg/ha, 7 DAT",< 40%
same,% Weed Control (Sp),"Sp (Sagittaria pygmaea); ordinary, 1.0 kg/ha, -2 DAT",< 40%
same,% Weed Control (Sp),"Sp (Sagittaria pygmaea); ordinary, .5 kg/ha, 3 DAT",< 40%
same,% Weed Control (Sp),"Sp (Sagittaria pygmaea); ordinary, .5 kg/ha, 7 DAT",< 40%
same,% Weed Control (Sp),"Sp (Sagittaria pygmaea); ordinary, .5 kg/ha, -2 DAT",< 40%
same,residual activity,[2],over 30 days
same,safe application timing,transplanted rice; 2 days before transplant (Table 6) to 14 DAT (Table 4),can safely be applied preemergence
same,"crop injury, transplanted rice",transplanted rice; recommended use rates,negligible crop injury
same,effectively treated sedges,[3],effectively treated
same,effectively treated dicotyledonous broadleaf weeds,[4],effectively treated
same,weed control in words,[5]; all weeds except Sagittaria (Sp),very effective
same,"toxicity to weeds and rice, normal vs early season",[5]; normal season vs early season,slightly more toxic to both weeds and rice
same,efficacious application period,[5]; relative to transplanting,from 2 days before transplanting to 12 DAT
"CCCCOCN(C(=O)CCl)c1c(CC)cccc1CC [Herbicide B, n-(butoxymethyl)-2',6'-diethyl-2-chloroacetanilide, reference compound]",period of application,weeds in rice fields,only brief periods of application
